According to patent US11857544B2, “Composition or method including (t)ew-7197 for treating or preventing corneal endothelial diseases” (THE DOSHISHA, priority 2017, dated 2024):

Columns and labels:
Caspase 3/7 = Caspase 3/7 activity (Caspase-Glo 3/7 Assay) in TGF-β-stimulated iFECD; type: cell-based, human
Procedure: were seeded on a 96-well plate at a ratio of 3×10^3 cells per well, and cultured until reaching confluence at 37° C. (5% CO2). DMEM+10% FBS+1% P/S was used as the medium. After 24 hours, the medium was removed. SB431542 (WAKO, 192-16541) and EW-7197 (Selleck Chemicals, 57530) were added so that the final concentration would each be 0.01, 0.1, 1, or 10 μM, and the medium was cultured for 24 hours. DMEM+2% FBS+1% P/S was used as the medium. After 24 hours, the medium was removed. 10 ng/ml of Transforming Growth Factor-132 Human recombinant (WAKO, 200-19911) and SB431542 were added so that the final concentration would be 0.01, 0.1, 1, and 10 μM, and the medium was cultured for 24 hours. DMEM+2% FBS+1% P/S was used as the medium. After 24 hours, the cell morphology was observed under a phase contrast microscope. After observation, Caspase 3/7 activity was measured using Caspase-Glo 3/7 Assay by the following procedures. The medium was discarded so that the amount would be 50 μl per well, and a Caspase Glo 3/7 Assay Reagent (mixture of Caspase-Glo 3/7 Assay Buffer and Caspase-Glo 3/7 Assay Substrate) (Promega, G8091) solution was added at 50 μl/well so that the ratio thereof to the medium would be 1:1. The process was hereinafter conducted without exposure to light. The mixture was mixed thoroughly using a shaker for 2 minutes at about 120 min^-1, and incubated for 40 minutes at room temperature. After the incubation, 80 μl was transferred to an Assay plate (Corning, 3912, Assay plate 96 well, white polystyrene), and absorbance was measured using a GloMax-Multi Detection System (Promega, E7051). A caspase inhibitor, i.e., 10μ MZ-VD-FMK (WAKO, 262-02061) was used as a positive control.

type I collagen = experiment: Area of type I collagen expression by immunostaining, Col8a2 knock-in mice (Example 5); type: in vivo; conditions: 0.02% eye drop, 8 weeks
Procedure: 5 μL of 0.02% (about 0.5 mM) EW-7197 eye drop or a base agent (7% DMSO containing PBS) was administered as an eye drop to both eyes of 4-month-old alpha 2 collagen 8 gene (Col8a2) knock-in mice 4 times a day for 8 weeks. The corneal endothelial cell density was measured using a specular microscope KS3M (Konan Medical, Inc.) at before eye drops, and 2, 4, 6, and 8 weeks after eye drops. Mice were euthanized by intraperitoneally administering an excessive amount (200 mg/kg body weight or greater) of anesthetic injection Somnopentyl (Kyoritsu Seiyaku Corporation) 8 weeks after injection. After confirming cardiac arrest, both eye balls were harvested. The harvested eye balls were incised to prepare a corneal fragment. Immunostaining of type I collagen and fibronectin was performed as follows. Image-Pro (Nippon Roper K.K.) was used to analyze the area of type I collagen and fibronectin expression.
After immobilizing a mouse corneal fragment for 10 minutes at room temperature in 4% paraformaldehyde, 0.5% TritonX-100 was added and allowed to permeate for 5 minutes. 1% bovine serum albumin (BSA) was added and the fragment was incubated for 1 hour at room temperature. The corneal fragment was then immersed in a primary antibody solution and reacted overnight at 4° C. […]

fibronectin = experiment: Western blot for fibronectin in TGF-β-stimulated iFECD; type: cell-based, human; conditions: any of the concentrations 0.1, 1, 10 μM
Procedure: […] were seeded on a 12-well plate at a ratio of 8×10^4 cells per well, and cultured at 37° C. (5% CO2) for 24 hours. DMEM+10% FBS+1% P/S was used as the medium. After 24 hours, the medium was removed. EW-7197 (Selleck Chemicals, 57530) was added so that the final concentration would be 0.1, 1, or 10 μM, and SB431542 (WAKO, 192-16541) was added so that the final concentration would be 10 μM, and the medium was cultured for 24 hours. DMEM+2% FBS+1% P/S was used as the medium. After 24 hours, the medium was removed and cultured […] so that the final concentration of 10 ng/ml of Transforming Growth Factor-132 Human recombinant (WAKO, 200-19911) and […] would be 0.1, 1, and 10 μM, and that of SB431542 would be 10 μM. DMEM+2% FBS+1% P/S was used as the medium. After 24 hours, the cell morphology and apoptosis were observed under a phase contrast microscope. To retrieve floating and dead cells, the medium was retrieved on ice, cells were washed twice with 1×PBS(-) and the solution thereof was also retrieved. The solution was centrifuged for 5 min at 4° C. and 800 g and the supernatant was discarded to obtain a precipitate. […] The detected band intensities were analyzed with Lumino Image Analyzer LAS-4000 mini (Fuji Film) and ImageQuantTM software (GE Healthcare).

- activity of Caspase 3/7 (Caspase 3/7; at 0.01 μM): inhibited significantly
- Caspase 3/7 inhibitory effect compared to SB431542 (Caspase 3/7; at 0.1 μM): higher inhibitory effect
Structure (SMILES): Cc1cccc(-c2[nH]c(CNc3ccccc3F)nc2-c2ccc3ncnn3c2)n1 [EW-7197, N-((4-([1,2,4]triazolo[1,5-a]pyridin-6-yl)-5-(6-methylpyridin-2-yl)-1H-imidazol-2-yl)methyl)-2-fluoroaniline]
- area of type I collagen expression compared to the base agent group (type I collagen): decreasing trend
- expression of fibronectin (about 240 kDa) (fibronectin): suppressed to the same degree as the control group without stimulation with TGF-β or 10 μM of SB431542
